The values below come from patent US20020169128A1, “Erythropoietin ameliorates chemotherapy-induced toxicity in vivo” (priority 2001, published 2002).

Data set [1] concerns C57B16 female mice. In words: Pulmonary function (Penh) by whole body plethysmography after graded methacholine challenge in mice treated with EPO and/or bleomycin. Format: in vivo. The following applies: treated twice a week for two weeks, i.p., FIG. 1. On the procedure: C57B16 female mice between 7 and 12 weeks old weighing approximately 20 grams were treated with varying doses of EPO alone and in combination with bleomycin. Animals were treated twice a week with placebo, EPO alone (5-40 μg/mouse, i.p.), bleomycin alone (0.25-0.75 μg/mouse, i.p.), or EPO and bleomycin in combination. […] At these time points, pulmonary function was measured using a full body plethysmograph (Buxco, Niskayuna, N.Y.). This is a noninvasive method utilizing a clear plastic animal chamber fitted with two pneumotachs and a transducer which interface with a computer. Pulmonary resistance and dynamic compliance is evaluated by an analyzer which measures flow and pressure readings at equivalent lung volumes during inspiration and expiration (“Iso-Volumetric Method”). Artifacts from animal movement or atypical breaths (e.g. from “sniffing”) are ignored by computer analysis using parameters that can be adjusted as appropriate for the tidal volume and inspiratory time of the individual animal. The method of whole body plethysmography has been studied and found to be a valid index of pulmonary function in the mouse (Hamelmann et al., Am. J. Respir. Crit. Care Med. 156)3 Pt1) 776-75 (1997). […] A similar pattern of the Penh values was observed when pulmonary functions were performed at four weeks of treatment (see FIG. 2).

For data set [2] the following is noted: doses of up to 1,500 Units/kg for three to four weeks; cited from earlier work.

As for bleomycin [reference compound], the “worsening in Penh values compared with control animals” value in data set [1] (graded (0 to 48 mg/ml) methacholine challenge) is recorded as 2.6 fold.

Regarding erythropoietin [EPO], the “pulmonary function (Penh), EPO given in the absence of bleomycin” value in data set [1] (graded methacholine challenge) is reported as “slight enhancement of pulmonary function”. Further, in data set [2], the “toxic effects due to EPO itself” value is given as “without toxic effects”.
